PMC5218480 (PLoS ONE, 2017)

Tested on: MV-4-11 cells
Assay: Gene expression microarray analysis (Affymetrix PrimeView) and GSEA
Assay type: cell-based, human
Parameters: RFU PODN (11730768_x_at) / Fold change /veh PODN (11730768_x_at) / RFU LINC00158 (11744669_a_at) / Fold change /veh LINC00158 (11744669_a_at) / RFU DUSP10 (11751237_a_at) / Fold change /veh DUSP10 (11751237_a_at) / RFU ID3 (11757404_x_at) / Fold change /veh ID3 (11757404_x_at) / RFU PLEKHG5 (11737974_s_at) / Fold change /veh PLEKHG5 (11737974_s_at) / RFU LRRC4B (11730491_at) / Fold change /veh LRRC4B (11730491_at) / RFU GIMAP4 (11747438_a_at) / Fold change /veh GIMAP4 (11747438_a_at) / RFU KRT8 (11758183_x_at) / Fold change /veh KRT8 (11758183_x_at) / RFU CNN1 (11734310_a_at) / Fold change /veh CNN1 (11734310_a_at) / RFU VPS37D (11726825_at) / Fold change /veh VPS37D (11726825_at) / RFU C10orf10 (11716522_x_at) / Fold change /veh C10orf10 (11716522_x_at) / RFU KIR2DL2 /// KIR2DL4 /// KIR2DL5A /// KIR2DL5B /// KIR2DS1 /// KIR2DS2 /// KIR2DS3 /// KIR2DS4 /// KIR3DL3 /// KIR3DL3 /// KIR3DS1 (11738374_at) / Fold change /veh KIR2DL2 /// KIR2DL4 /// KIR2DL5A /// KIR2DL5B /// KIR2DS1 /// KIR2DS2 /// KIR2DS3 /// KIR2DS4 /// KIR3DL3 /// KIR3DL3 /// KIR3DS1 (11738374_at) / RFU C1QL1 (11718748_at) / Fold change /veh C1QL1 (11718748_at) / RFU TMPRSS4 (11747572_a_at) / Fold change /veh TMPRSS4 (11747572_a_at) / RFU HAMP (11756126_x_at) / Fold change /veh HAMP (11756126_x_at) / RFU RNFT2 (11725882_a_at) / Fold change /veh RNFT2 (11725882_a_at) / RFU NR4A2 (11747474_a_at) / Fold change /veh NR4A2 (11747474_a_at) / RFU ABCC12 (11746883_a_at) / Fold change /veh ABCC12 (11746883_a_at) / RFU TMEM136 (11760407_x_at) / Fold change /veh TMEM136 (11760407_x_at) / RFU CLDN22 /// WWC2 (11732394_at) / Fold change /veh CLDN22 /// WWC2 (11732394_at) / RFU HLA-DPB1 (11760878_x_at) / Fold change /veh HLA-DPB1 (11760878_x_at) / RFU SPINT1 (11716480_a_at) / Fold change /veh SPINT1 (11716480_a_at) / RFU GAP43 (11754022_s_at) / Fold change /veh GAP43 (11754022_s_at) / RFU A4GNT (11735810_at) / Fold change /veh A4GNT (11735810_at) / RFU PRB3 (11715151_x_at) / Fold change /veh PRB3 (11715151_x_at) / RFU TUBB4B (11761932_at) / Fold change /veh TUBB4B (11761932_at) / RFU CAPN14 (11732068_a_at) / Fold change /veh CAPN14 (11732068_a_at) / RFU TMCC2 (11721928_a_at) / Fold change /veh TMCC2 (11721928_a_at) / RFU IRGQ (11745062_a_at) / Fold change /veh IRGQ (11745062_a_at) / RFU FAM174B (11720279_a_at) / Fold change /veh FAM174B (11720279_a_at) / RFU TMPRSS4 (11748680_a_at) / Fold change /veh TMPRSS4 (11748680_a_at) / RFU FAM212B (11763350_a_at) / Fold change /veh FAM212B (11763350_a_at) / RFU PLEKHG5 (11743358_a_at) / Fold change /veh PLEKHG5 (11743358_a_at) / RFU ZSCAN30 (11745921_a_at) / Fold change /veh ZSCAN30 (11745921_a_at) / RFU CMKLR1 (11741424_a_at) / Fold change /veh CMKLR1 (11741424_a_at) / RFU LOC101060620 /// MAPK8IP1 (11723275_at) / Fold change /veh LOC101060620 /// MAPK8IP1 (11723275_at) / RFU SPTSSB (11747773_x_at) / Fold change /veh SPTSSB (11747773_x_at) / RFU PRSS12 (11739890_at) / Fold change /veh PRSS12 (11739890_at) / RFU BIN1 (11741810_x_at) / Fold change /veh BIN1 (11741810_x_at) / RFU WNT11 (11732464_a_at) / Fold change /veh WNT11 (11732464_a_at) / RFU C10orf10 (11716521_a_at) / Fold change /veh C10orf10 (11716521_a_at) / RFU C5orf56 (11738089_at) / Fold change /veh C5orf56 (11738089_at) / RFU CYB561 (11721691_x_at) / Fold change /veh CYB561 (11721691_x_at) / RFU ANKRD19P (11752326_a_at) / Fold change /veh ANKRD19P (11752326_a_at) / RFU OR2T12 /// OR2T33 /// OR2T8 (11738714_s_at) / Fold change /veh OR2T12 /// OR2T33 /// OR2T8 (11738714_s_at) / RFU VCAN (11748164_a_at) / Fold change /veh VCAN (11748164_a_at) / RFU JSRP1 (11732532_at) / Fold change /veh JSRP1 (11732532_at) / RFU KRTAP10-11 (11738290_x_at) / Fold change /veh KRTAP10-11 (11738290_x_at) / RFU MYO3A (11730013_a_at) / Fold change /veh MYO3A (11730013_a_at) / RFU EBF3 (11725865_a_at) / Fold change /veh EBF3 (11725865_a_at) / RFU CAMK2N1 (11719241_x_at) / Fold change /veh CAMK2N1 (11719241_x_at) / RFU C5orf56 (11738088_a_at) / Fold change /veh C5orf56 (11738088_a_at) / RFU OLFML3 (11715873_a_at) / Fold change /veh OLFML3 (11715873_a_at) / RFU LOC100653217 /// NTM (11731650_a_at) / Fold change /veh LOC100653217 /// NTM (11731650_a_at) / RFU MAPK11 (11762145_a_at) / Fold change /veh MAPK11 (11762145_a_at) / RFU FIZ1 (11724087_x_at) / Fold change /veh FIZ1 (11724087_x_at) / RFU OASL (11726364_x_at) / Fold change /veh OASL (11726364_x_at) / RFU SOX15 (11748057_x_at) / Fold change /veh SOX15 (11748057_x_at) / RFU CD79A (11719716_a_at) / Fold change /veh CD79A (11719716_a_at) / RFU HIST1H1D (11736915_at) / Fold change /veh HIST1H1D (11736915_at) / RFU CASKIN2 (11723855_a_at) / Fold change /veh CASKIN2 (11723855_a_at) / RFU LOC730098 (11760151_x_at) / Fold change /veh LOC730098 (11760151_x_at) / RFU OR4N2 (11742367_at) / Fold change /veh OR4N2 (11742367_at) / RFU PRRT2 (11749266_a_at) / Fold change /veh PRRT2 (11749266_a_at) / RFU SNX32 (11753110_a_at) / Fold change /veh SNX32 (11753110_a_at) / RFU CDHR5 (11726645_a_at) / Fold change /veh CDHR5 (11726645_a_at) / RFU RCAN1 (11760418_a_at) / Fold change /veh RCAN1 (11760418_a_at) / RFU FAM167A (11723789_a_at) / Fold change /veh FAM167A (11723789_a_at) / RFU FAM26E (11764081_at) / Fold change /veh FAM26E (11764081_at) / RFU ISYNA1 (11749810_s_at) / Fold change /veh ISYNA1 (11749810_s_at) / RFU ACY1 (11761880_at) / Fold change /veh ACY1 (11761880_at) / RFU 11764098_at / Fold change /veh 11764098_at / RFU SAMD14 (11745864_x_at) / Fold change /veh SAMD14 (11745864_x_at) / RFU NPB (11741838_a_at) / Fold change /veh NPB (11741838_a_at) / RFU TMPRSS6 (11731388_a_at) / Fold change /veh TMPRSS6 (11731388_a_at) / RFU KRTAP10-2 (11738614_at) / Fold change /veh KRTAP10-2 (11738614_at) / RFU ARHGAP8 /// PRR5-ARHGAP8 (11727945_x_at) / Fold change /veh ARHGAP8 /// PRR5-ARHGAP8 (11727945_x_at) / RFU KRTAP5-7 /// NADSYN1 (11734609_at) / Fold change /veh KRTAP5-7 /// NADSYN1 (11734609_at) / RFU RASL12 (11751679_a_at) / Fold change /veh RASL12 (11751679_a_at) / RFU CDKN2B (11736163_a_at) / Fold change /veh CDKN2B (11736163_a_at) / RFU PRF1 (11729649_at) / Fold change /veh PRF1 (11729649_at) / RFU, ZNF638 /// ZNF638-IT1 / Fold change vs veh, ZNF638 /// ZNF638-IT1 / RFU, PANK3 / Fold change vs veh, PANK3 / RFU, SH3YL1 / Fold change vs veh, SH3YL1 / RFU, ZEB2 / Fold change vs veh, ZEB2 / RFU, NRIP1 / Fold change vs veh, NRIP1 / RFU, PTTG1IP / Fold change vs veh, PTTG1IP / RFU, CAPN2 / Fold change vs veh, CAPN2 / RFU, MED14 / Fold change vs veh, MED14 / RFU, SNORA58 / Fold change vs veh, SNORA58 / RFU, C1orf63 / Fold change vs veh, C1orf63 / RFU, LRRFIP1 / Fold change vs veh, LRRFIP1 / RFU, NDUFAF7 / Fold change vs veh, NDUFAF7 / RFU, SLC12A2 / Fold change vs veh, SLC12A2 / RFU, IBTK / Fold change vs veh, IBTK / RFU, ESF1 / Fold change vs veh, ESF1 / Fold change vs veh, TMEM50B / RFU, TAOK1 / Fold change vs veh, TAOK1 / RFU, ACBD3 / Fold change vs veh, ACBD3 / RFU, TMA16 / Fold change vs veh, TMA16 / RFU, RWDD3 / Fold change vs veh, RWDD3 / RFU, BCAT1 / Fold change vs veh, BCAT1 / RFU, EDEM3 / Fold change vs veh, EDEM3 / RFU, TMEM33 / Fold change vs veh, TMEM33 / RFU, WDR75 / Fold change vs veh, WDR75 / RFU, AHCTF1 / Fold change vs veh, AHCTF1 / RFU, TFRC / Fold change vs veh, TFRC / RFU, ZDHHC17 / Fold change vs veh, ZDHHC17 / RFU, NOM1 / Fold change vs veh, NOM1 / RFU, ARL8B / Fold change vs veh, ARL8B / RFU, ZBTB11 / Fold change vs veh, ZBTB11 / RFU, TAMM41 / Fold change vs veh, TAMM41 / RFU, KIAA1704 /// LOC100996395 / Fold change vs veh, KIAA1704 /// LOC100996395 / RFU, ING1 / Fold change vs veh, ING1 / RFU, TRMT61B / Fold change vs veh, TRMT61B / RFU, FUBP3 / Fold change vs veh, FUBP3 / RFU, TP53 / Fold change vs veh, TP53 / RFU, TNKS2 / Fold change vs veh, TNKS2 / RFU, ZFP14 / Fold change vs veh, ZFP14 / RFU, ACTR2 / Fold change vs veh, ACTR2 / RFU, PPP3R1 / Fold change vs veh, PPP3R1 / RFU, PIK3R1 / Fold change vs veh, PIK3R1 / RFU, HNRNPA1 / Fold change vs veh, HNRNPA1 / RFU, RNF170 / Fold change vs veh, RNF170 / RFU, ZNF28 / Fold change vs veh, ZNF28 / RFU, RNGTT / Fold change vs veh, RNGTT / RFU, OGT / Fold change vs veh, OGT / RFU, BRD1 / Fold change vs veh, BRD1 / RFU, MARS / Fold change vs veh, MARS / RFU, ZNF655 / Fold change vs veh, ZNF655 / RFU, FAHD1 / Fold change vs veh, FAHD1 / RFU, BDP1 / Fold change vs veh, BDP1 / RFU, LRRCC1 / Fold change vs veh, LRRCC1 / RFU, ARID1A / Fold change vs veh, ARID1A / RFU, ZNF146 / Fold change vs veh, ZNF146 / RFU, ZNF330 / Fold change vs veh, ZNF330 / RFU, GPN3 / Fold change vs veh, GPN3 / RFU, C9orf123 / Fold change vs veh, C9orf123 / RFU, N4BP2L2 / Fold change vs veh, N4BP2L2 / RFU, ARFIP1 / Fold change vs veh, ARFIP1 / RFU, FAM179B / Fold change vs veh, FAM179B / RFU, BCL10 / Fold change vs veh, BCL10 / RFU, UHRF1BP1L / Fold change vs veh, UHRF1BP1L / RFU, BET1 / Fold change vs veh, BET1 / RFU, CNOT2 / Fold change vs veh, CNOT2 / RFU, ZNF268 / Fold change vs veh, ZNF268 / Fold change vs veh, ZNF507 / RFU, DGCR2 / Fold change vs veh, DGCR2 / RFU, WDSUB1 / Fold change vs veh, WDSUB1 / Fold change vs veh, HSP90B1 /// MIR3652 / RFU, ADSS / Fold change vs veh, ADSS / RFU, GK / Fold change vs veh, GK / RFU, ZNF148 / Fold change vs veh, ZNF148 / RFU, TAF9 / Fold change vs veh, TAF9 / RFU, SLC1A5 / Fold change vs veh, SLC1A5 / RFU, SLMO2 / Fold change vs veh, SLMO2 / RFU, ABCC4 / Fold change vs veh, ABCC4 / RFU, LOC101060439 /// RAP1B / Fold change vs veh, LOC101060439 /// RAP1B / RFU, RFX7 / Fold change vs veh, RFX7 / RFU, GTPBP10 / Fold change vs veh, GTPBP10 / RFU, CNEP1R1 / Fold change vs veh, CNEP1R1 / RFU, BIVM-ERCC5 /// ERCC5 / Fold change vs veh, BIVM-ERCC5 /// ERCC5 / RFU, ILF3 / Fold change vs veh, ILF3 / RFU 11762660_at / Fold change /veh 11762660_at / RFU VCAN (11757783_s_at) / Fold change /veh VCAN (11757783_s_at) / RFU DDX43 (11728927_at) / Fold change /veh DDX43 (11728927_at) / RFU KRT8 (11758188_x_at) / Fold change /veh KRT8 (11758188_x_at) / RFU NKD1 (11759106_at) / Fold change /veh NKD1 (11759106_at) / RFU SRD5A1 (11742802_a_at) / Fold change /veh SRD5A1 (11742802_a_at) / RFU TPSAB1 /// TPSB2 (11721975_s_at) / Fold change /veh TPSAB1 /// TPSB2 (11721975_s_at) / RFU GSTM3 (11746129_a_at) / Fold change /veh GSTM3 (11746129_a_at) / RFU IL23R (11737362_x_at) / Fold change /veh IL23R (11737362_x_at) / RFU TMEM51 (11727254_a_at) / Fold change /veh TMEM51 (11727254_a_at) / RFU PIWIL2 (11732686_x_at) / Fold change /veh PIWIL2 (11732686_x_at) / RFU ORM1 (11744905_x_at) / Fold change /veh ORM1 (11744905_x_at) / RFU CCDC152 (11743942_at) / Fold change /veh CCDC152 (11743942_at) / RFU ECM1 (11717891_a_at) / Fold change /veh ECM1 (11717891_a_at) / RFU IL23R (11748794_a_at) / Fold change /veh IL23R (11748794_a_at) / RFU TNFAIP8L3 (11732012_x_at) / Fold change /veh TNFAIP8L3 (11732012_x_at) / RFU MBOAT4 (11741988_at) / Fold change /veh MBOAT4 (11741988_at) / RFU 11764193_at / Fold change /veh 11764193_at / RFU TMEM53 (11763286_at) / Fold change /veh TMEM53 (11763286_at) / RFU MAGEB2 (11727129_at) / Fold change /veh MAGEB2 (11727129_at) / RFU TMEM200A (11744735_a_at) / Fold change /veh TMEM200A (11744735_a_at) / RFU CCDC152 (11751479_a_at) / Fold change /veh CCDC152 (11751479_a_at) / RFU FAM211A (11726209_a_at) / Fold change /veh FAM211A (11726209_a_at) / RFU RGS16 (11746705_a_at) / Fold change /veh RGS16 (11746705_a_at) / RFU VCAN (11755009_s_at) / Fold change /veh VCAN (11755009_s_at) / RFU RHOB (11743442_s_at) / Fold change /veh RHOB (11743442_s_at) / RFU RGS16 (11720943_a_at) / Fold change /veh RGS16 (11720943_a_at) / RFU RGS16 (11720944_at) / Fold change /veh RGS16 (11720944_at) / RFU, VPS4B / Fold change vs veh, VPS4B / RFU, CREB1 / Fold change vs veh, CREB1 / RFU, DNAJC13 / Fold change vs veh, DNAJC13 / RFU, GNAQ / Fold change vs veh, GNAQ / RFU, CDK5R1 / Fold change vs veh, CDK5R1 / RFU, ZRANB3 / Fold change vs veh, ZRANB3 / RFU, CUL4A / Fold change vs veh, CUL4A / RFU, CCNY / Fold change vs veh, CCNY / RFU, UFL1 / Fold change vs veh, UFL1 / RFU, COG3 / Fold change vs veh, COG3 / RFU, DIAPH2 / Fold change vs veh, DIAPH2 / RFU, SKA2 / Fold change vs veh, SKA2 / RFU, AFF3 / Fold change vs veh, AFF3 / RFU, LMF1 / Fold change vs veh, LMF1 / RFU, IPO11 / Fold change vs veh, IPO11 / RFU, DFFB / Fold change vs veh, DFFB / RFU, FOXP1 / Fold change vs veh, FOXP1 / RFU, CARD8 / Fold change vs veh, CARD8 / RFU, STRN3 / Fold change vs veh, STRN3 / RFU, ADK / Fold change vs veh, ADK / RFU, RASSF2 / Fold change vs veh, RASSF2 / RFU, WIPF1 / Fold change vs veh, WIPF1 / RFU, LARP1B / Fold change vs veh, LARP1B / RFU, RASA1 / Fold change vs veh, RASA1 / RFU, RB1 / Fold change vs veh, RB1 / RFU, PPFIA1 / Fold change vs veh, PPFIA1 / RFU, MAT2A / Fold change vs veh, MAT2A / RFU, CCT5 / Fold change vs veh, CCT5 / RFU, WDR92 / Fold change vs veh, WDR92 / RFU, CUX1 / Fold change vs veh, CUX1 / RFU, TTC7A / Fold change vs veh, TTC7A / RFU, TMEM135 / Fold change vs veh, TMEM135 / RFU, DEPTOR / Fold change vs veh, DEPTOR / RFU, CPM / Fold change vs veh, CPM / RFU, DNAJB6 / Fold change vs veh, DNAJB6 / RFU, CACNA2D3 / Fold change vs veh, CACNA2D3 / RFU, DTX4 / Fold change vs veh, DTX4 / RFU, TFCP2 / Fold change vs veh, TFCP2 / RFU, GMCL1 /// GMCL1P1 / Fold change vs veh, GMCL1 /// GMCL1P1 / RFU, AEBP2 / Fold change vs veh, AEBP2 / RFU, SNHG1 /// SNORD22 /// SNORD25 /// SNORD26 /// SNORD27 /// SNORD28 /// SNORD29 /// SNORD31 / Fold change vs veh, SNHG1 /// SNORD22 /// SNORD25 /// SNORD26 /// SNORD27 /// SNORD28 /// SNORD29 /// SNORD31 / Fold change (Aza/veh), C12orf56 (ProbeSet 11735607_a_at) / Fold change (ACY-1035/veh), C12orf56 (ProbeSet 11735607_a_at) / Fold change (Aza/veh), FGFR1OP (ProbeSet 11751329_s_at) / Fold change (ACY-1035/veh), FGFR1OP (ProbeSet 11751329_s_at) / Fold change (Aza/veh), VPS36 (ProbeSet 11739960_a_at) / Fold change (ACY-1035/veh), VPS36 (ProbeSet 11739960_a_at) / RFU SYPL1 (11715823_x_at) / Fold change /veh SYPL1 (11715823_x_at) / RFU IGFBP7 (11715501_s_at) / Fold change /veh IGFBP7 (11715501_s_at) / RFU REEP3 (11722064_at) / Fold change /veh REEP3 (11722064_at) / RFU IGLL1 (11728026_x_at) / Fold change /veh IGLL1 (11728026_x_at): dose or concentration left out as unconfirmed
Conditions: ProbeSet 11753623_s_at; LIST D

Nc1ccc(-c2cccs2)cc1NC(=O)c1ccc2c(c1)cc(C1CC1)n2CCN1CCOCC1 [ACY-1035]
Fold change vs veh, LOC101060439 /// RAP1B: 0.85
